This passage reports inhibition results from US9420794B2, “Herbicidal composition” (ISHIHARA SANGYO KAISHA, LTD., priority 2012, dated 2016).

Where two headings read alike, the source gives them in different places.

Common to all, as to type: in vivo
For test [1], the system named is annual ragweed (Ambrosia artemisiifolia L.). Nature of the test: Test Example 3: pot test, foliar treatment, growth inhibition of annual ragweed. The following applies: read-out: Growth inhibition rate of annual ragweed (%) Measured value. As to the method: (§1) Growth inhibition rate (%)=0 (equivalent to the non-treated area) to 100 (complete kill)
Upland field soil was put into a 1/1,000,000 ha pot, and seeds of annual ragweed (Ambrosia artemisiifolia L.) were sown. When the annual ragweed reached 6.0 to 8.0-leaf stage, predetermined amounts of ONEHOPE NYUZAI (tradename), Clio (tradename) and Spectrum (tradename) were diluted with water (in an amount corresponding to 300 L/ha) and applied for foliar treatment by a small sprayer.
On the 20 th day after treatment, the state of growth of the annual ragweed was visually observed to determine the growth inhibition rate (%). The growth inhibition rate (%) (measured value) and the growth inhibition rate (%) calculated in the same manner as in the above Test Example 1 are shown in Table 3.

The subject of test [2] is velvetleaf (Abutilon theophrasti Medic.). Nature of the test: Test Example 1: pot test, soil treatment, growth inhibition of velvetleaf. Particulars: read-out: Growth inhibition rate of velvetleaf (%) Measured value.
Text: Upland field soil was put into a 1/300,000 ha pot, and seeds of velvetleaf (Abutilon theophrasti Medic.) were sown. On the next day, predetermined amounts of a flowable containing nicosulfuron as an active ingredient (tradename: ONEHOPE NYUZAI, manufactured by Ishihara Sangyo Kaisha, Ltd.), an emulsifiable concentrate containing dimethenamid-P as an active ingredient (tradename: Spectrum, manufactured by BASF) and a flowable containing topramezone as an active ingredient (tradename: Clio, manufactured by BASF) were diluted with water (in an amount corresponding to 1,000 L/ha) and applied for soil treatment by a small sprayer.
On the 28th day after treatment, the state of growth of the velvetleaf was visually observed to determine the growth inhibition rate (%) in accordance with the following evaluation standard. The growth inhibition rate (%) (measured value) and the growth inhibition rate (%) (calculated value) calculated by the Colby's formula are shown in Table 1.
as §1

In test [3] the test system is wild oat (Avena fatua L.). Put plainly: Test Example 4: pot test, soil treatment, growth inhibition of wild oat. Particulars: read-out: Growth inhibition rate of wild oat (%) Measured value. As to the method: as §1
Upland field soil was put into a 1/160,000 ha pot, and seeds of wild oat (Avena fatua L.) were sown. On the next day, predetermined amounts of ONEHOPE NYUZAI (tradename), Clio (tradename) and Spectrum (tradename) were diluted with water (in an amount corresponding to 300 L/ha) and applied for soil treatment by a small sprayer.
On the 28 th day after treatment, the state of growth of the wild oat was visually observed to determine the growth inhibition rate (%). The growth inhibition rate (%) (measured value) and the growth inhibition rate (%) calculated in the same manner as in the above Test Example 1 are shown in Table 4.

Test [4] deals with korean lespedeza (Kummerowia stipulacea (Maxim.) Makino). Nature of the test: Test Example 2: pot test, soil treatment, growth inhibition of korean lespedeza. Particulars: read-out: Growth inhibition rate of korean lespedeza (%) Measured value. As to the method: as §1
Upland field soil was put into a 1/160,000 ha pot, and seeds of korean lespedeza (Kummerowia stipulacea (Maxim.) Makino) were sown. On the next day, predetermined amounts of ONEHOPE NYUZAI (tradename), Clio (tradename) and Spectrum (tradename) were diluted with water (in an amount corresponding to 300 L/ha) and applied for soil treatment by a small sprayer.
On the 14th day after treatment, the state of growth of the korean lespedeza was visually observed to determine the growth inhibition rate (%). The growth inhibition rate (%) (measured value) and the growth inhibition rate (%) calculated in the same manner as in the above Test Example 1 are shown in Table 2.

As for `COC[C@H](C)N(C(=O)CCl)c1c(C)csc1C` [Dimethenamid-P, (S)-2-chloro-N-(2,4-dimethyl-3-thienyl)-N-(2-methoxy-1-methylethyl)acetamide], the inhibition at 500 g/ha in test [1] (dose 500 g/ha, foliar treatment at 6.0 to 8.0-leaf stage, 20th day after treatment) amounted to 0%; in test [2] (dose 500 g/ha, soil treatment, 28th day after treatment), 20%. The inhibition at 1000 g/ha in test [1] (dose 1000 g/ha, foliar treatment at 6.0 to 8.0-leaf stage, 20th day after treatment) worked out at 0%. Also, the inhibition at 250 g/ha turned out to be 60% in test [3] (dose 250 g/ha, soil treatment, 28th day after treatment) and 30% in test [4] (dose 250 g/ha, soil treatment, 14th day after treatment). The inhibition at 1500 g/ha in test [4] (dose 1500 g/ha, soil treatment, 14th day after treatment) is 30%.
With `COc1cc(OC)nc(NC(=O)NS(=O)(=O)c2ncccc2C(=O)N(C)C)n1` [Nicosulfuron, 2-(4,6-dimethoxypyrimidin-2-ylcarbamoylsulfamoyl)-N,N-dimethylnicotinamide], in test [1] (dose 30 g/ha, foliar treatment at 6.0 to 8.0-leaf stage, 20th day after treatment), the inhibition at 30 g/ha is 13%. The inhibition at 15 g/ha in test [2] (dose 15 g/ha, soil treatment, 28th day after treatment) came out at 0%. Further, the inhibition at 100 g/ha in test [3] (dose 100 g/ha, soil treatment, 28th day after treatment) came out at 60%; in test [4] (dose 100 g/ha, soil treatment, 14th day after treatment), 10%. The inhibition at 10 g/ha in test [4] (dose 10 g/ha, soil treatment, 14th day after treatment) was determined as 0%.
Turning to `Cc1c(C(=O)c2cnn(C)c2O)ccc(S(C)(=O)=O)c1C1=NOCC1` [Topramezone, [3-(4,5-dihydro-1,2-oxazol-3-yl)-4-mesyl-o-tolyl](5-hydroxy-1-methylpyrazol-4-yl)methanone], in test [1] (foliar), the inhibition at 20 g/ha amounted to 40% and the inhibition at 50 g/ha worked out at 65%. Moreover, the inhibition at 20 g/ha in test [2] (soil) is 60%. Moreover, the inhibition at 15 g/ha in test [3] (soil) is 0%. In addition, in test [4] (soil), the inhibition at 15 g/ha came to 0% and the inhibition at 100 g/ha was 10%.

For orientation: inhibition means the percentage by which the read-out fell short of the control.
